# Results from patent publication US20080153896A1, “Polymorphic Forms of an HMG-CoA Reductase Inhibitor and Uses Thereof” (priority 2006, published 2008).
# Assay: Stability (integrity) testing of amorphous and polymorphic form under storage conditions, RP-HPLC
# Type: physicochemical
# Design: key to Impurity RRT 0.738 / Impurity RRT 0.949 / Impurity RRT 1.050 / Impurity RRT 1.550 / Impurity RRT 0.136 / Impurity RRT 0.720 / Impurity RRT 0.706 / Impurity RRT 1.18 / Impurity RRT 1.826: % of total UV absorption (HPLC peak area)
# In short: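 Amorphous form and three batches of polymorphic Form I of the hemi calcium salt were stored under different atmospheric conditions. Purity measured by RP-HPLC on C18 with UV detection, drug as percent of total absorption; total impurity from summed impurity peak areas, impurities identified by relative retention time.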
# [1] = 25° C./60% RH 12M, hemi calcium salt
# [2] = 30° C./65% RH 1M, hemi calcium salt
# [3] = 30° C./65% RH 2M, hemi calcium salt
# [4] = 30° C./65% RH 3M, hemi calcium salt
# [5] = 30° C./65% RH 6M, hemi calcium salt
# [6] = 30° C./65% RH 9M, hemi calcium salt
# [7] = 30° C./65% RH 12M, hemi calcium salt
# [8] = 40° C./75% RH 1M, hemi calcium salt
# [9] = 40° C./75% RH 2M, hemi calcium salt
# [10] = 40° C./75% RH 3M, hemi calcium salt
# [11] = 40° C./75% RH 6M, hemi calcium salt
# [12] = Initial, listed as Batch 1 of Polymorphic Form I, hemi calcium salt
smiles,measurement,setting,value
"CC(C)c1c(C(=O)Nc2ccc(CO)cc2)c(-c2ccccc2)c(-c2ccc(F)cc2)n1CC[C@@H](O)C[C@@H](O)CC(=O)[O-].CC(C)c1c(C(=O)Nc2ccc(CO)cc2)c(-c2ccccc2)c(-c2ccc(F)cc2)n1CC[C@@H](O)C[C@@H](O)CC(=O)[O-].[Ca+2] [PP00405, (3R, 5R)-7-[2-(4-fluorophenyl)-5-isopropyl-3-phenyl-4-[(4-hydroxymethylphenylamino)carbonyl]-pyrrol-1-yl]-3,5-dihydroxy-heptanoic acid, hemi calcium salt]",Highest Impurity,[1],0.412
same,Impurity RRT 0.935,[1],0.412
same,Impurity RRT 1.045,[1],0.396
same,Impurity RRT 1.640,[1],0.051
same,Total Impurity,[1],1.318
same,Water,[1],5.47 % W/W
same,Description,30° C./65% RH 1M,White
same,Impurity RRT 1.094,30° C./65% RH 1M,0.149
same,Impurity RRT 1.437,30° C./65% RH 1M,0.161
same,Impurity RRT 1.593,30° C./65% RH 1M,0.061
same,Impurity RRT 1.694,30° C./65% RH 1M,0.060
same,Water,30° C./65% RH 1M,4.16 % W/W
same,Assay,[2],98.25 % W/W
same,Highest Impurity,[2],0.370
same,Impurity RRT 0.935,[2],0.370
same,Impurity RRT 1.045,[2],0.300
same,Impurity RRT 1.64,[2],0.047
same,Total Impurity,[2],1.228
same,Description,30° C./65% RH 2M,White
same,Impurity RRT 1.094,30° C./65% RH 2M,0.16
same,Impurity RRT 1.180,30° C./65% RH 2M,0.044
same,Impurity RRT 1.437,30° C./65% RH 2M,0.163
same,Impurity RRT 1.593,30° C./65% RH 2M,0.080
same,Impurity RRT 1.694,30° C./65% RH 2M,0.062
same,Assay,[3],98.23 % W/W
same,Highest Impurity,[3],0.390
same,Impurity RRT 0.935,[3],0.390
same,Impurity RRT 1.045,[3],0.374
same,Impurity RRT 1.64,[3],0.044
same,Total Impurity,[3],1.320
same,Water,[3],3.85 % W/W
same,Description,30° C./65% RH 3M,White
same,Impurity RRT 1.094,30° C./65% RH 3M,0.167
same,Impurity RRT 1.437,30° C./65% RH 3M,0.168
same,Impurity RRT 1.593,30° C./65% RH 3M,0.081
same,Impurity RRT 1.694,30° C./65% RH 3M,0.066
same,Assay,[4],98.15 % W/W
same,Highest Impurity,[4],0.416
same,Impurity RRT 0.935,[4],0.416
same,Impurity RRT 1.045,[4],0.405
same,Impurity RRT 1.64,[4],0.048
same,Total Impurity,[4],1.350
same,Water,[4],4.73 % W/W
same,Description,30° C./65% RH 6M,White
same,Impurity RRT 0.136,30° C./65% RH 6M,0.049
same,Impurity RRT 1.094,30° C./65% RH 6M,0.140
same,Impurity RRT 1.437,30° C./65% RH 6M,0.150
same,Impurity RRT 1.593,30° C./65% RH 6M,0.077
same,Impurity RRT 1.694,30° C./65% RH 6M,0.044
same,Assay,[5],98.08 % W/W
same,Highest Impurity,[5],0.361
same,Impurity RRT 0.935,[5],0.355
same,Impurity RRT 1.045,[5],0.361
same,Impurity RRT 1.640,[5],0.042
same,Total Impurity,[5],1.218
same,Water,[5],5.62 % W/W
same,Description,30° C./65% RH 9M,White
same,Impurity RRT 0.136,30° C./65% RH 9M,0.056
same,Impurity RRT 1.094,30° C./65% RH 9M,0.134
same,Impurity RRT 1.437,30° C./65% RH 9M,0.147
same,Impurity RRT 1.593,30° C./65% RH 9M,0.080
same,Impurity RRT 1.694,30° C./65% RH 9M,0.051
same,Assay,[6],98.15 % W/W
same,Highest Impurity,[6],0.387
same,Impurity RRT 0.935,[6],0.387
same,Impurity RRT 1.045,[6],0.351
same,Impurity RRT 1.640,[6],0.033
same,Total Impurity,[6],1.239
same,Water,[6],5.55 % W/W
same,Impurity RRT 0.136,30° C./65% RH 12M,0.240
same,Impurity RRT 1.094,30° C./65% RH 12M,0.120
same,Impurity RRT 1.437,30° C./65% RH 12M,0.148
same,Impurity RRT 1.593,30° C./65% RH 12M,0.075
same,Impurity RRT 1.694,30° C./65% RH 12M,0.055
same,Assay,[7],98.09 % W/W
same,Highest Impurity,[7],0.375
same,Impurity RRT 0.935,[7],0.375
same,Impurity RRT 1.045,[7],0.372
same,Impurity RRT 1.640,[7],0.044
same,Total Impurity,[7],1.492
same,Water,[7],5.91 % W/W
same,Description,40° C./75% RH 1M,White
same,Impurity RRT 1.094,40° C./75% RH 1M,0.167
same,Impurity RRT 1.437,40° C./75% RH 1M,0.155
same,Impurity RRT 1.593,40° C./75% RH 1M,0.085
same,Impurity RRT 1.694,40° C./75% RH 1M,0.071
same,Assay,[8],98.22 % W/W
same,Highest Impurity,[8],0.405
same,Impurity RRT 0.935,[8],0.405
same,Impurity RRT 1.045,[8],0.39
same,Impurity RRT 1.64,[8],0.05
same,Total Impurity,[8],1.323
same,Water,[8],4.52 % W/W
same,Description,40° C./75% RH 2M,White
same,Impurity RRT 1.094,40° C./75% RH 2M,0.164
same,Impurity RRT 1.180,40° C./75% RH 2M,0.049
same,Impurity RRT 1.437,40° C./75% RH 2M,0.169
same,Impurity RRT 1.593,40° C./75% RH 2M,0.082
same,Impurity RRT 1.694,40° C./75% RH 2M,0.067
same,Assay,[9],98.16 % W/W
same,Highest Impurity,[9],0.408
same,Impurity RRT 0.935,[9],0.407
same,Impurity RRT 1.045,[9],0.408
same,Impurity RRT 1.64,[9],0.046
same,Total Impurity,[9],1.39
same,Water,[9],4.63 % W/W
same,Description,40° C./75% RH 3M,White
same,Impurity RRT 1.094,40° C./75% RH 3M,0.162
same,Impurity RRT 1.437,40° C./75% RH 3M,0.167
same,Impurity RRT 1.593,40° C./75% RH 3M,0.094
same,Impurity RRT 1.694,40° C./75% RH 3M,0.056
same,Assay,[10],98.11 % W/W
same,Highest Impurity,[10],0.403
same,Impurity RRT 0.935,[10],0.403
same,Impurity RRT 1.045,[10],0.396
same,Impurity RRT 1.64,[10],0.049
same,Total Impurity,[10],1.330
same,Water,[10],4.64 % W/W
same,Description,40° C./75% RH 6M,White
same,Impurity RRT 1.094,40° C./75% RH 6M,0.146
same,Impurity RRT 1.437,40° C./75% RH 6M,0.151
same,Impurity RRT 1.593,40° C./75% RH 6M,0.098
same,Impurity RRT 1.694,40° C./75% RH 6M,0.074
same,Assay,[11],98.22 % W/W
same,Highest Impurity,[11],0.391
same,Impurity RRT 0.935,[11],0.391
same,Impurity RRT 1.045,[11],0.351
same,Impurity RRT 1.640,[11],0.031
same,Total Impurity,[11],1.242
same,Water,[11],5.55 % W/W
same,Description,Initial,White
same,Impurity RRT 0.720,Initial,0.046
same,Impurity RRT 1.094,Initial,0.142
same,Impurity RRT 1.437,Initial,0.162
same,Impurity RRT 1.593,Initial,0.079
same,Impurity RRT 1.694,Initial,0.068
same,Assay,[12],98.48 % W/W
same,Highest Impurity,[12],0.411
same,Impurity RRT 1.045,[12],0.385
same,Impurity RRT 1.64,[12],0.046
same,Total Impurity,[12],1.340
same,Water,[12],4.55 % W/W
